From patent US8933105B2, “Pyrrole compounds” (Takeda Pharmaceutical Company Limited, priority 2007, dated 2015)

Key:
Caspase-3/7 = Caspase-3/7 activity test (Caspase-Glo 3/7 Assay); type: cell-based, Human; conditions: HepG2, 30 μM, culture for one day, relative to maximum with Staurosporine (100%) and no test reagent (0%)
Experimental: (§1) Human liver cancer-derived cell line HepG2 (ATCC No. HB-8065) was passaged using Dulbecco's Modified Eagle medium (DMEM; Invitrogen) containing 10% fetal bovine serum (FBS; TRACE SCIENTIFIC LTD.), 1 mmol/L sodium pyruvate (Invitrogen), 2 mmol/L L-glutamine (Invitrogen), 50 IU/mL penicillin (Invitrogen) and 50 μg/mL streptomycin (Invitrogen) at 5% CO2, 37° C. The test reagent was prepared with DMSO to 10 mM, and further diluted with DMEM medium containing 0.5% FBS, 1 mmol/L sodium pyruvate, 2 mmol/L L-glutamine, 50 IU/mL penicillin and 50 μg/mL streptomycin to a final concentration of DMSO of 0.1%. HepG2 (2×10^4 cells/well) was cultured on a 96 well white plate (Costar) with the test reagent at 5% CO2, 37° C. After culture for one day, the intracellular ATP content was measured using ATPLite™ (PerkinElmer Life Sciences). The results are shown in Table 26 (n≧3, average value±SD) as a relative value (%) to control (without addition of drug) at 30 μM.
Caspase-3/7 Activity Test
The Caspase-3/7 activity in the cells cultured for one day by a method similar to that in Experimental Example 2 was measured using Caspase-Glo 3/7 Assay (Promega). The results are shown in Table 26 (n≧3, average value±SD) as relative activity (%) of each reagent based on the maximum value of Caspase-3/7 activity when exposed to Staurosporine (100%), and the activity without addition of a test reagent (0%).

HepG2 = test: ATP content test (intracellular ATP content, ATPLite); type: cell-based, Human; conditions: HepG2, 30 μM, culture for one day, relative value to control (without addition of drug)
Experimental: as §1

[1] = biological target: T1, proton, potassium-adenosine triphosphatase (H+,K+-ATPase) (Sus scrofa, UniProt P19156); test: Proton potassium-adenosine triphosphatase (H+,K+-ATPase) inhibitory activity test; type: biochemical; conditions: swine gastric microsomal fraction, pH 6.5, 37° C.
T1 construct: a gastric mucous membrane microsomal fraction was prepared from the stomach of swine; from tissue; host or cells: swine stomach, gastric mucous membrane microsomal fraction
Experimental: Proton Potassium-Adenosine Triphosphatase (H^+,K^+-ATPase) Inhibitory Activity Test
According to the method [Biochim. Biophys. Acta, 728, 31 (1983)] of Wallmark et al., a gastric mucous membrane microsomal fraction was prepared from the stomach of swine. First, the stomach was removed, washed with tap water, immersed in 3 mol/L brine, and the surface of the mucous membrane was wiped with a paper towel. The gastric mucous membrane was detached, chopped, and homogenized in a 0.25 mol/L saccharose solution (pH 6.8) containing 1 mmol/L EDTA and 10 mmol/L tris-hydrochloric acid using polytron (Kinematica). The obtained homogenate was centrifuged at 20,000×g for 30 min and the supernatant was centrifuged at 100,000×g for 90 min. The precipitate was suspended in 0.25 mol/L saccharose solution, superimposed on a 0.25 mol/L saccharose solution containing 7.5% Ficoll, and centrifuged at 100,000×g for 5 hr. The fraction containing the interface between the both layers was recovered, and centrifugally washed with 0.25 mol/L saccharose solution.
The obtained microsomal fraction was used as a proton, potassium-adenosine triphosphatase standard product.
To 40 μL of a 50 mmol/L HEPES-tris buffer (5 mmol/L magnesium chloride, 10 mmol/L potassium chloride, 10 μmol/L valinomycin, pH=6.5) containing 2.5 μg/mL (based on the protein concentration) of the enzyme standard product was added a test compound (5 μL) dissolved in a 10% aqueous dimethyl sulfoxide solution, and the mixture was incubated at 37° C. for 30 min. The enzyme reaction was started by adding 5 μL of a 2 mmol/L adenosine triphosphate tris salt solution (50 mmol/L HEPES-tris buffer (5 mmol/L magnesium chloride, pH 6.5)). The enzyme reaction was carried out at 37° C. for 20 min, and 15 μL of a malachite green solution (0.12% malachite green solution in sulfuric acid (2.5 mol/L), 7.5% ammonium molybdate and 11% Tween 20 were mixed at a ratio of 100:25:2) was added to quench the reaction. After allowing to stand at room temperature for 15 min, the resulting reaction product of inorganic phosphorus with malachite green was calorimetrically determined at a wavelength of 610 nm. In addition, the amount of the inorganic phosphoric acid in the reaction solution free of potassium chloride was measured in the same manner, which was subtracted from the inorganic phosphoric acid amount in the presence of potassium chloride to determine the proton, potassium-adenosine triphosphatase activity. The inhibitory rate (%) was determined from the activity value of the control and the activity values of various concentrations of the test compound, and the 50% inhibitory concentration (IC50) of the proton, potassium-adenosine triphosphatase was determined.

T1 sequence (P19156 2-1034 limits assumed): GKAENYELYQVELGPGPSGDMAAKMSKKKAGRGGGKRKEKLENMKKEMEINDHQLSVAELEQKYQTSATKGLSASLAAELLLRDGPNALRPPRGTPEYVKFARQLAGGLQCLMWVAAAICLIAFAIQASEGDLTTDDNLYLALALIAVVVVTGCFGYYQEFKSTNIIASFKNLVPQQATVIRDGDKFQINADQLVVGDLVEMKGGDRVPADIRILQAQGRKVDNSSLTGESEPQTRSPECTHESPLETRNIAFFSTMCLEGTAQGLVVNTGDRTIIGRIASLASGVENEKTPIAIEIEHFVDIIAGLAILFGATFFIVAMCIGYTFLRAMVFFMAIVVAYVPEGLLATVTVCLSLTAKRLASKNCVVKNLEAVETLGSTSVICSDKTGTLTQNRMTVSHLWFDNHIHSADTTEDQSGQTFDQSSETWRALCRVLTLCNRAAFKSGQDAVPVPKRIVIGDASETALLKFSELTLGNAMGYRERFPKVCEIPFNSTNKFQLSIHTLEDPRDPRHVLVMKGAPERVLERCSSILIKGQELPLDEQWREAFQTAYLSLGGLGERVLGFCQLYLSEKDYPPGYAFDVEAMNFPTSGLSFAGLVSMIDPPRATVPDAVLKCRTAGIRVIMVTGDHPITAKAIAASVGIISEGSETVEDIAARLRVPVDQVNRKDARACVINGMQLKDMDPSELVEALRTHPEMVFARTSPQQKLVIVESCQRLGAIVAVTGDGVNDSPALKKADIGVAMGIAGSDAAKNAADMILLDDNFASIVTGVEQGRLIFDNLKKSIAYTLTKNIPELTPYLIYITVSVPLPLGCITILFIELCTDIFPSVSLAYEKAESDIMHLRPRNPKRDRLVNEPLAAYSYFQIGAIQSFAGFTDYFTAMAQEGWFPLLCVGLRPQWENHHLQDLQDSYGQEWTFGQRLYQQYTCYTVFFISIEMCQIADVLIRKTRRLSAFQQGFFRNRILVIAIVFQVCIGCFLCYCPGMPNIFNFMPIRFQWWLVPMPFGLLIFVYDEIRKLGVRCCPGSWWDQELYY
T1 sequence (P18434 whole entry partner): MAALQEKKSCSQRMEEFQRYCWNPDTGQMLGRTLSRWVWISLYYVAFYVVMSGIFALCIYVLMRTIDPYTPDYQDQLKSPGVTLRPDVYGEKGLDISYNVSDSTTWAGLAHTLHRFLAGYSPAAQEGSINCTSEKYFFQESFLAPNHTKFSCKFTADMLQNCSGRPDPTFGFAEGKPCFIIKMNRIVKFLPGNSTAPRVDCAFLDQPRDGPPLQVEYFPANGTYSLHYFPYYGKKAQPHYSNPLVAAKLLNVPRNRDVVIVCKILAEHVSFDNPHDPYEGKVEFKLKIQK

SMILES	Caspase-3/7 activity (%, 30 μM) (Caspase-3/7)	ATP content (%, 30 μM) (HepG2)	IC50 [1]
CNCc1cn(S(=O)(=O)c2cnn(C(F)F)c2)c(-c2cccnc2F)c1F.Cl [Example 81, 1-[1-{[1-(difluoromethyl)-1H-pyrazol-4-yl]sulfonyl}-4-fluoro-5-(2-fluoropyridin-3-yl)-1H-pyrrol-3-yl]-N-methylmethanamine hydrochloride]	−0.2%	101.7%	300 nM
CNCc1cn(S(=O)(=O)c2nccs2)c(-c2cccnc2F)c1F.Cl [Example 83, 1-[4-fluoro-5-(2-fluoropyridin-3-yl)-1-(1,3-thiazol-2-ylsulfonyl)-1H-pyrrol-3-yl]-N-methylmethanamine hydrochloride]	0.3%	96.6%	180 nM
CNCc1cn(S(=O)(=O)c2ccccn2)c(-c2cccnc2F)c1F.Cl [Example 85, 1-[4-fluoro-5-(2-fluoropyridin-3-yl)-1-(pyridin-2-ylsulfonyl)-1H-pyrrol-3-yl]-N-methylmethanamine hydrochloride]	−0.6%	102.0%	98 nM
CNCc1cc(-c2cccnc2C#N)n(S(=O)(=O)c2ccccc2Cl)c1.Cl [Example 99, 3-{1-[(2-chlorophenyl)sulfonyl]-4-[(methylamino)methyl]-1H-pyrrol-2-yl}pyridine-2-carbonitrile hydrochloride]	0.0%	82.7%	270 nM
CNCc1cc(-c2cccnc2C#N)n(S(=O)(=O)c2ccccc2C#N)c1.Cl [Example 101, 3-{1-[(2-cyanophenyl)sulfonyl]-4-[(methylamino)methyl]-1H-pyrrol-2-yl}pyridine-2-carbonitrile hydrochloride]	−0.5%	97.3%	230 nM
